# Measured values: publication PMC8161026, “Synthesis and Anticancer Activity Evaluation of 5-[2-Chloro-3-(4-nitrophenyl)-2-propenylidene]-4-thiazolidinones” (Molecules, 2021)
# Assays:
# [1] = system: M14; assay: NCI DTP 60 cell line screen, SRB; conditions: for GI50 / CC50: Homo sapiens, M14, 48 h; for CC50: read-out: LC50; for TGI: M14 (Melanoma), 48 h, SRB
# [2] = system: CCRF-CEM; assay: NCI DTP 60 cell line screen, SRB; conditions: 48 h; for TGI: CCRF-CEM (Leukemia), SRB; for GI50 / CC50: Homo sapiens, CCRF-CEM; for CC50: read-out: LC50
# [3] = system: SW-620; assay: cells; conditions: Homo sapiens, SW-620, 48 h; for CC50: read-out: LC50
# [4] = system: SNB-19; assay: NCI DTP 60 cell line screen, SRB; conditions: for GI50 / CC50: Homo sapiens, SNB-19, 48 h; for CC50: read-out: LC50; for TGI: SNB-19 (CNS Cancer), 48 h, SRB
# [5] = system: NCI-H23; assay: cells; conditions: Homo sapiens, NCI-H23, 48 h; for CC50: read-out: LC50
# [6] = system: HL-60(TB); conditions: HL-60(TB) (Leukemia), 48 h, SRB
# [7] = system: 786-0; assay: cells; conditions: Homo sapiens, 786-0, 48 h; for CC50: read-out: LC50
# [8] = system: HT-29; assay: NCI DTP 60 cell line screen, SRB
# [9] = system: U251; conditions: U251 (CNS Cancer), 48 h, SRB
# [10] = system: OVCAR-8; assay: NCI DTP 60 cell line screen, SRB; conditions: for GI50 / CC50: Homo sapiens, OVCAR-8, 48 h; for CC50: read-out: LC50; for TGI: OVCAR-8 (Ovarian Cancer), 48 h, SRB
# [11] = system: 786-0; conditions: 786-0 (Renal Cancer), 48 h, SRB
# [12] = system: PC-3; conditions: PC-3 (Prostate Cancer), 48 h, SRB
# [13] = system: IGROV1; assay: NCI DTP 60 cell line screen, SRB; conditions: for GI50 / CC50: Homo sapiens, IGROV-1, 48 h; for CC50: read-out: LC50; for TGI: IGROV1 (Ovarian Cancer), 48 h, SRB
# [14] = system: SR; assay: cells; conditions: Homo sapiens, 48 h; for CC50: read-out: LC50
# [15] = system: NCI-322M; assay: NCI DTP 60 cell line screen, SRB; conditions: 48 h; for GI50 / CC50: Homo sapiens, NCI-322M; for CC50: read-out: LC50; for TGI: NCI-322M (Non-Small Cell Lung Cancer), SRB
# [16] = system: HS 578T; assay: NCI DTP 60 cell line screen, SRB; conditions: 48 h; for TGI: HS 578T (Breast Cancer), SRB; for GI50 / CC50: Homo sapiens, Hs-578T; for CC50: read-out: LC50
# [17] = system: SN12C; conditions: SN12C (Renal Cancer), 48 h, SRB
# [18] = system: SN12C; assay: cells; conditions: Homo sapiens, 48 h; for CC50: read-out: LC50
# [19] = system: HL-60(TB); assay: cells; conditions: Homo sapiens, HL-60, 48 h; for CC50: read-out: LC50
# [20] = system: DU-145; conditions: DU-145 (Prostate Cancer), 48 h, SRB
# [21] = system: HCT-15; assay: NCI DTP 60 cell line screen, SRB; conditions: for TGI: HCT-15 (Colon Cancer), 48 h, SRB; for GI50 / CC50: Homo sapiens, HCT-15, 48 h; for CC50: read-out: LC50
# [22] = system: T-47D; assay: cells; conditions: Homo sapiens, T47D, 48 h; for CC50: read-out: LC50
smiles,measurement,setting,value
"O=C1NC(=S)S/C1=C\C(Cl)=C\c1ccc([N+](=O)[O-])cc1 [Compound 2b, 5-[(Z,2Z)-2-Chloro-3-(4-nitrophenyl)-2-propenylidene]-2-thioxo-4-thiazolidinone]",GI50,[1],8.87 µM
same,CC50,[1],> 50 µM
same,TGI,[1],32.2 µM
same,TGI,[2],21.5 µM
same,GI50,[2],1.97 µM
same,CC50,[2],> 50 µM
same,GI50,[3],1.94 µM
same,CC50,[3],23.5 µM
same,GI50,[4],8.1 µM
same,CC50,[4],> 50 µM
same,TGI,[4],21.4 µM
same,GI50,[5],3.27 µM
same,CC50,[5],45.5 µM
same,TGI,[6],14.4 µM
same,GI50,[7],9.4 µM
same,CC50,[7],37.6 µM
same,TGI,"[8]; HT-29 (Colon Cancer), 48 h, SRB",9.48 µM
same,GI50,"[8]; Homo sapiens, HT-29, 48 h",1.48 µM
same,CC50,"[8]; Homo sapiens, HT-29, 48 h, read-out: LC50",> 50 µM
same,TGI,[9],9.73 µM
same,GI50,[10],5.08 µM
same,CC50,[10],47.9 µM
same,TGI,[10],15.6 µM
same,TGI,[11],18.8 µM
same,TGI,[12],> 50 µM
same,GI50,[13],7.28 µM
same,CC50,[13],> 50 µM
same,TGI,[13],21.1 µM
same,GI50,[14],1.18 µM
same,CC50,[14],> 50 µM
same,GI50,[15],6.51 µM
same,CC50,[15],> 50 µM
same,TGI,[15],18.8 µM
same,TGI,[16],12.1 µM
same,GI50,[16],1.42 µM
same,CC50,[16],> 50 µM
same,TGI,[17],18.0 µM
same,GI50,[18],4.11 µM
same,CC50,[18],> 50 µM
same,GI50,[19],1.21 µM
same,CC50,[19],> 50 µM
same,TGI,[20],14.2 µM
same,TGI,[21],8.81 µM
same,GI50,[21],1.79 µM
same,CC50,[21],25.4 µM
same,GI50,[22],3.21 µM
same,CC50,[22],> 50 µM
"O=C1/C(=C/C(Cl)=C/c2ccc([N+](=O)[O-])cc2)SC(=S)N1/N=C\C(Cl)=C\c1ccc([N+](=O)[O-])cc1 [Compound 2c, 5-[(Z,2Z)-2-Chloro-3-(4-nitrophenyl)-2-propenylidene]-3-[(Z,2Z)-2-chloro-3-(4-nitrophenyl)-2-propenylideneamino]-2-thioxo-4-thiazolidinone]",GI50,[1],16.2 µM
same,CC50,[1],78.5 µM
same,TGI,[1],35.7 µM
same,TGI,[2],35.3 µM
same,GI50,[2],4.42 µM
same,CC50,[2],> 100 µM
same,GI50,[3],7.24 µM
same,CC50,[3],> 100 µM
same,GI50,[4],48.3 µM
same,CC50,[4],> 100 µM
same,TGI,[4],> 100 µM
same,GI50,[5],16.6 µM
same,CC50,[5],60.3 µM
same,TGI,[6],23.3 µM
same,GI50,[7],12.1 µM
same,CC50,[7],77.8 µM
same,TGI,[9],24.5 µM
same,GI50,[10],1.98 µM
same,CC50,[10],8.38 µM
same,TGI,[10],4.08 µM
same,TGI,[11],30.7 µM
same,TGI,[12],45.8 µM
same,GI50,[13],13.3 µM
same,CC50,[13],58.9 µM
same,TGI,[13],28.0 µM
same,GI50,[14],3.67 µM
same,CC50,[14],> 100 µM
same,GI50,[15],87.6 µM
same,CC50,[15],> 100 µM
same,TGI,[15],> 100 µM
same,TGI,[16],> 100 µM
same,GI50,[16],29.5 µM
same,CC50,[16],> 100 µM
same,TGI,[17],> 100 µM
same,GI50,[18],29 µM
same,CC50,[18],> 100 µM
same,GI50,[19],5.32 µM
same,CC50,[19],87.2 µM
same,TGI,[20],52.8 µM
same,TGI,[21],33.0 µM
same,GI50,[21],16.6 µM
same,CC50,[21],65.7 µM
same,GI50,[22],24.5 µM
same,CC50,[22],> 100 µM
